According to article PMC4741971, “The dual topoisomerase inhibitor A35 preferentially and specially targets topoisomerase 2α by enhancing pre-strand and post-strand cleavage and inhibiting DNA religation” (Oncotarget, 2015):

How the values were obtained:
Format in all cases: biochemical
top2α [1] = molecular target: T1, top2α (Homo sapiens, UniProt P11388); experiment: top2α-mediated pBR322 DNA relaxation assay at […]
T1 construct: gene TOP2A

top2β = molecular target: T2, top2β (Homo sapiens, UniProt Q02880); experiment: purified top2β-mediated pBR322 DNA cleavage assay
T2 construct: gene TOP2B
T2 sequence (Q02880 2-1626): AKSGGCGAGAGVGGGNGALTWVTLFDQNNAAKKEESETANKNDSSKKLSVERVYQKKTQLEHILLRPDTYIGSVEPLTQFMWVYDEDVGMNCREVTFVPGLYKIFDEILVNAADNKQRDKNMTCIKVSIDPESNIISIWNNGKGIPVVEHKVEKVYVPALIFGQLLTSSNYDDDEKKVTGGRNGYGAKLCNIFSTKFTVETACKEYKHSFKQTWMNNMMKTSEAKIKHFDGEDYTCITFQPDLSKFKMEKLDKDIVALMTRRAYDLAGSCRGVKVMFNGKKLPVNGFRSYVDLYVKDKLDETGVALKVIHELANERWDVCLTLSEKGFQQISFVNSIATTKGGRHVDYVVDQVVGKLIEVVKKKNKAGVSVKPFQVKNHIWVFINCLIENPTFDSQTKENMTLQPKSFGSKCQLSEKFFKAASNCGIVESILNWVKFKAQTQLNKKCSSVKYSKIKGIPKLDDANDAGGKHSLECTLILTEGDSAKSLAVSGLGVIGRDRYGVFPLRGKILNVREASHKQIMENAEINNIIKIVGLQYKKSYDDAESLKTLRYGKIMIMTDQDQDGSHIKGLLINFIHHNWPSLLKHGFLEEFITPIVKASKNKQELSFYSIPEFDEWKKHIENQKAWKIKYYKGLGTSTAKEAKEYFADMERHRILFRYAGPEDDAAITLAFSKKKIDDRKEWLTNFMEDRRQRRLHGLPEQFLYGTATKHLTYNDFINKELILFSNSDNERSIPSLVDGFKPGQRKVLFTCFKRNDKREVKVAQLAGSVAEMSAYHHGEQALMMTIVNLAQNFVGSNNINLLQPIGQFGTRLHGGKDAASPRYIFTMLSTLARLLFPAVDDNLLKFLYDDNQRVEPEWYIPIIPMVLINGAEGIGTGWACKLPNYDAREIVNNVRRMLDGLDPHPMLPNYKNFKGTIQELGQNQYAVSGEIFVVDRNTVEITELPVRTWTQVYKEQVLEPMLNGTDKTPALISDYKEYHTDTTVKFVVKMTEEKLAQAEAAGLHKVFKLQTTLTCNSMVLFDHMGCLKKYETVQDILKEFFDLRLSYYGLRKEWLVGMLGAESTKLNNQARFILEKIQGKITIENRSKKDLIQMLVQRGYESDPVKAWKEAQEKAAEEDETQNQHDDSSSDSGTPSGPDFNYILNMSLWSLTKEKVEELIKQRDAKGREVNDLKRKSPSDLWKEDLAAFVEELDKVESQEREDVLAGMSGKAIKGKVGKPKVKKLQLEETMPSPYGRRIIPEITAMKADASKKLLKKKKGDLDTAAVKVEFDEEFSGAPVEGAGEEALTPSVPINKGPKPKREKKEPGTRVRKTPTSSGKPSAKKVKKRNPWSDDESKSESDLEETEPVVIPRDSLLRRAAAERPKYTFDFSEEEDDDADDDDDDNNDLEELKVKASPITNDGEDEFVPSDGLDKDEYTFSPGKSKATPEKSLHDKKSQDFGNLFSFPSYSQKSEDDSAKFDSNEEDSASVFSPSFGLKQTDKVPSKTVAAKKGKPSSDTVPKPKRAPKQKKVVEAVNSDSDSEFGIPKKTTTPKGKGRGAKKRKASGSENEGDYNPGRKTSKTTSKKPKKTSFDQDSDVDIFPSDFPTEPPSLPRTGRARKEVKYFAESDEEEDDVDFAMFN

top2α [2] = molecular target: T1, top2α; experiment: top2α-mediated pBR322 DNA relaxation assay; also cleavage and religation assays and TARDIS in cells
top1 [3] = molecular target: T3, top1 (Homo sapiens, UniProt P11387); experiment: top1-mediated DNA relaxation assay; also top1-mediated DNA cleavage and TARDIS in cells
T3 sequence (P11387 2-765): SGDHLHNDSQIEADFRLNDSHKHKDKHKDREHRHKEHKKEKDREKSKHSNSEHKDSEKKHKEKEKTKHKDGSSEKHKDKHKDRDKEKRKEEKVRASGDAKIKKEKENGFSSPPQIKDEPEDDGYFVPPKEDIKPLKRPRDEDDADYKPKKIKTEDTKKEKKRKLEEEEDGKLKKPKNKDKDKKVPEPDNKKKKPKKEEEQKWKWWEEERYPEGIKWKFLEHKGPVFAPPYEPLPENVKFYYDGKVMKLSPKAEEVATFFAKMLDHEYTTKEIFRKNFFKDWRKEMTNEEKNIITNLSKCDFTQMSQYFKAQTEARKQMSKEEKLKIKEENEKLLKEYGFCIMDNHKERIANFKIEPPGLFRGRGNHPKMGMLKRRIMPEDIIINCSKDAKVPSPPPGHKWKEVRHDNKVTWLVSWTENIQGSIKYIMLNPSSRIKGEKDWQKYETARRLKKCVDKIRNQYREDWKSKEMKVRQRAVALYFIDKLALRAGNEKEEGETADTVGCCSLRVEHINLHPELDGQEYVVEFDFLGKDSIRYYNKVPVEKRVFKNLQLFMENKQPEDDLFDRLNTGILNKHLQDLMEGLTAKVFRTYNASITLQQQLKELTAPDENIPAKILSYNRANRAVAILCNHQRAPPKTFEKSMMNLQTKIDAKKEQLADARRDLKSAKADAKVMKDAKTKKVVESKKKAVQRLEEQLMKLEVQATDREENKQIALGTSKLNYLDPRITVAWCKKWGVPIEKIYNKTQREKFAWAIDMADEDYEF

top1 [4] = molecular target: T3, top1; experiment: top1-mediated cleavage of […]'-end-labeled 117-bp oligonucleotide

T1 sequence (P11388 whole entry): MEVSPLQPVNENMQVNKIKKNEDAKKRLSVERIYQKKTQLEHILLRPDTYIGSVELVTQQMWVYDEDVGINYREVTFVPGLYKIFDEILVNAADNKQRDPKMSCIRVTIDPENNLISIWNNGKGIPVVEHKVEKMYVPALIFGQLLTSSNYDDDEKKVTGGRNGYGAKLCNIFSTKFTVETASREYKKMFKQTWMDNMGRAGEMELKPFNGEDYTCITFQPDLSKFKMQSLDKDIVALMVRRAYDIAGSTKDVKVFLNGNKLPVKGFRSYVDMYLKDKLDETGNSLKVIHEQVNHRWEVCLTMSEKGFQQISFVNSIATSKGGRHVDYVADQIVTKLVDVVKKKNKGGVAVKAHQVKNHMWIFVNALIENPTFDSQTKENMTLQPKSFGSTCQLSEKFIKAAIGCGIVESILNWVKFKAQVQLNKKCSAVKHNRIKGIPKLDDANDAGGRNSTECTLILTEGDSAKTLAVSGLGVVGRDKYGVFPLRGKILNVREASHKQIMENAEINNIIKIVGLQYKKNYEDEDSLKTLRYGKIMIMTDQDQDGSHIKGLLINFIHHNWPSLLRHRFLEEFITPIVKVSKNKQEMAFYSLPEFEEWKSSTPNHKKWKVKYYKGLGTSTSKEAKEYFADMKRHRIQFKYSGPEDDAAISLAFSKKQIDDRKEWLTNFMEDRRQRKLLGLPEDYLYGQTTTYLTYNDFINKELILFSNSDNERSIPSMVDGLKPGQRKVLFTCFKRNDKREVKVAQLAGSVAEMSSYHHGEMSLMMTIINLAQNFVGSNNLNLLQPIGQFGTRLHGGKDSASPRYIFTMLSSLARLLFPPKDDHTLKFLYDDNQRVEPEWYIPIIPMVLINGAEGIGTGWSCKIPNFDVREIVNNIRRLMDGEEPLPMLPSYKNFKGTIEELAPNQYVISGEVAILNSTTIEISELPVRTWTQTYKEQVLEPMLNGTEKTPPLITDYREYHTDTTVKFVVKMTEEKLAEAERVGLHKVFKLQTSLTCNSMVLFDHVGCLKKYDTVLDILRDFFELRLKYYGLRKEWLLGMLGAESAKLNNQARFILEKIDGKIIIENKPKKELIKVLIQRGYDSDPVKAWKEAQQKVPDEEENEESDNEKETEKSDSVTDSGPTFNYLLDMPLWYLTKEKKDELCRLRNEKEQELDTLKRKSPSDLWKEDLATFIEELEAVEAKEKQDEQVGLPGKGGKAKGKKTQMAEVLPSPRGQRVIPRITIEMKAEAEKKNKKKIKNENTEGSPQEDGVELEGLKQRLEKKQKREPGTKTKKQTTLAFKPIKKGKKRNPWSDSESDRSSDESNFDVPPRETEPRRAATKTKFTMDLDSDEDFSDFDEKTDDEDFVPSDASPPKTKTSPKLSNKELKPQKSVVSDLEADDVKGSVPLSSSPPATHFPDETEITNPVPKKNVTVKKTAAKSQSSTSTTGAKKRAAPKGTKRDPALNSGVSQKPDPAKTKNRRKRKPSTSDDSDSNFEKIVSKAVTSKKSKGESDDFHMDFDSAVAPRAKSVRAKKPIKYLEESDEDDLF

COc1cc([C@@H]2c3cc4c(cc3[C@@H](O[C@@H]3O[C@@H]5CO[C@@H](C)O[C@H]5[C@H](O)[C@H]3O)[C@H]3COC(=O)[C@H]23)OCO4)cc(OC)c1O [VP16, etoposide]
top2α-mediated pBR322 DNA relaxation assay at 10 μM (top2α [1]): inhibitory activity of A35 on top top2α was much higher than that of etoposide (VP16) | purified top2β-mediated pBR322 DNA cleavage assay (top2β): A35 did not lead to DNA breakage mediated by top2β and the positive (VP16) control induced significant DNA breakage

COc1ccc2c(c[n+]3c4c2ccc2c5c(cc(c24)CC3)OCO5)c1OC(=O)c1ccccc1 [A35]
IC50 (top2α [2]): 560 nM | IC50 (top1 [3]): 22.1 µM

CC[C@@]1(O)C(=O)OCc2c1cc1n(c2=O)Cc2cc3c(CN(C)C)c(O)ccc3nc2-1 [TPT, topotecan]
top1-mediated cleavage of 3'-end-labeled 117-bp oligonucleotide (top1 [4]): the DNA breakage effect was weak and far less than the positive control TPT (topotecan)
